Series [1] in a line: Steady state plasma PAA in hospitalized patients with cirrhosis and HE, Study 3. Format: in vivo, human. As to conditions: for median concentration of PAA at steady state: Study 3, Child-Pugh C patients. The protocol:
(§1) Pharmacokinetics Analysis
(§2) Both non-compartmental analysis and population PK analysis were conducted to identify factors attributing to the PK of PAA, ORN, and PAGN. Ethnicity factor on the PK of PAA was explored using the PK data from Caucasian, Chinese, and Japanese healthy subjects in Studies 1 and 4.

Series [2] is described as follows: Population PK modeling of PAA, Studies 2, 3 and 5. Format: in vivo, human. As for the experimental part: as §2
Hepatic impairment also altered PAA plasma exposure. To identify the factors contributing to PAA plasma exposure, population PK modeling was conducted. A one-compartment model with Michaelis-Menten kinetics describing the formation of PAGN from PAA adequately quantified PAA plasma concentration profiles in healthy subjects and patients. Body weight was identified as a significant covariate for the PK of PAA in both healthy subjects and patients. Other factors such as ethnicity and hepatic/renal impairment on the PK of PAA are described below.

Series [3] in a line: Safety/tolerability of LOPA in healthy subjects (SAD/MAD), Study 1. Particulars: Study 1, healthy subjects, FIG. 2. As for the experimental part:
as §1
(§3) Adverse events (AEs) were assessed and coded using the Medical Dictionary for Regulatory Activities (MedDRA) preferred term and system organ class.
(§4) The evaluation of potential correlation between central nervous system (CNS) AEs and PAA exposure was conducted on data from Studies 1-3. The first reported drug-related CNS AE was included in the analysis. For each such CNS AE, two PAA concentrations were identified based on the time of onset of the AE and the time of PAA assessment: (1) the closest PAA concentration before the onset of the AE; and (2) the closest PAA concentrations after the onset of the […] All time points were calculated relative to the start of study drug infusion.

A short description of series [4]: Safety/tolerability of LOPA in patients with stable cirrhosis, Study 2. Particulars: Study 2, FIG. 3. As for the experimental part: as §1, §3, §4
Series [5] in a line: Safety of LOPA in hospitalized patients with cirrhosis, hyperammonemia and acute HE, Study 3. Particulars: hospitalized patients with hyperammonemia and an acute episode of HE. As for the experimental part: as §1, §3, §4
Series [6] in a line: Plasma exposure by baseline creatinine clearance group (FIG. 1; Studies 2, 3 and 5). The protocol:
Renal dysfunction is expected to elevate PAGN plasma concentrations. AE data from subjects with severe renal impairment were summarized. […] CLcr of 35 mL/min was chosen as a cut-off value in order to have relatively sufficient sample size for the group with relatively worse renal function.

The nature of the next series: clinical. Particulars: human, in vivo, iv.
Series [7] can be described thus: PK of PAA, ORN and PAGN in severe renal impairment vs normal renal function, Study 5.
Method: Seven subjects with severe renal impairment and seven age, sex, and weight-matched subjects with normal renal function participated, wherein 5 males and 2 females participated in both groups.
(§5) Plasma concentrations of ORN, PAA, PAGN, and urine concentrations of PAGN were measured using a validated LC-MS/MS method.
[8] abbreviates: normal renal function, LOPA 15 g/24 hour IV.
Setting [9] is: severely impaired renal function, LOPA 7 g/24 hours IV.

Method for clinical: as §5
Hepatic dysfunction on PAA PK was investigated using the PK data from patients in Studies 2 and 3. Renal dysfunction on PAA and PAGN plasma exposure was explored using the PK data from Studies 2, 3 and 5.

Take `O=C(O)Cc1ccccc1` [PAA, phenylacetic acid]: the “median concentration of PAA at steady state” value in series [1] (10 g/24 hr (n=23)) worked out at 118 µg/mL; in series [1] (15 g/24 hr (n=38)), 120 µg/mL. Also, the “plasma PAA concentration at steady state, higher in Child-Pugh C than Child-Pugh B patients” value in [1] (Study 3, LOPA 15 g/24 h, during infusion period) was “approximately 35%”. The “impact of renal dysfunction on the exposure of PAA” value in series [2] (mild, moderate or severe renal dysfunction, population PK analysis) is “insignificant impact”. In series [2] (population PK model, same body weight), the “PAA exposure at steady state, Child-Pugh C higher than Child-Pugh B” value stood at 36%. In addition, in series [3], the “severity of CNS AEs vs PAA plasma concentrations” value is recorded as “appeared to be correlated”. In addition, the “PAA concentrations vs CNS AE occurrence” value in series [4] is “No correlation”. For the same molecule, the “PAA exposure related neurotoxicity” value in [5] is reported as “No PAA exposure related neurotoxicity”. Moreover, the “PAA plasma concentrations, CLcr ≤35 mL/min group vs >35 mL/min group” value in series [6] is listed as “no difference”. Besides, the “PAA PK: increase in Cmax and AUC with dose” value (IV LOPA from 10 g/4 h or 20 g/24 h up, healthy subjects and subjects with stable cirrhosis) is “greater than dose-proportional increase”. Also, the “Recovered PAA as unchanged compound in urine” value (after IV LOPA) is < 1 % of the administered dose of PAA. The half-life – broadly, the time needed for the level to fall by half in the phase considered – in the series “clinical” (3 g/4 h) was 0.65 h; in “clinical” (30 g/4 h) it was 5.99 h; in the series “clinical” (30 g/24 h), 1.25 h; in “clinical” (60 g/24 h), 4.09 h. For the same molecule, the “mean dose normalized PAA AUCt” value in series [7] (setting [8]) was 54.9 µg·h/mL/g; in series [7] (setting [9]), 45.4 µg·h/mL/g. For the same molecule, the results for the “mean dose normalized PAA Cmax” value in series [7] (setting [8]) and in [7] (setting [9]) were 2.61 µg/mL/g and 1.58 µg/mL/g, respectively.

(Values after patent US12697317B2 (priority 2019, dated 2026).)
